Converted amounts (≈) assume the structure as drawn. Read-outs that look alike come from different tables or passages of the source.

Assay type in all cases: cell-based
The subject of experiment [1] is Aureobasidium pullulans. Put plainly: preservative for latex paints. The note with it: for zone of inhibition at 0.25 % / zone of inhibition at 0.5 %: Aureobasidium pullulans, 504 h; for Surface (growth on the surface of painted square): none, medium or heavy; for Zone (zone of inhibition): listed as CH3, Cl, Cl. How it is done: Various quantities of the chemical were incorporated into a white exterior vinyl acetate paint. Whatman #30 filter paper was painted with one coat of paint on each side. One inch squares were cut and placed in Petri dishes on a malt agar.
The surface of both the agar and the painted squares were inoculated with a spore suspension of Aureobasidium pullulans. The plates were examined for zones of inhibition and surface growth after three weeks incubation in a humidity chamber at 27°-28°.
Various quantities of 4,5-dichloro-2-methyl-4-isothiazolin-3-thione were incorporated into a white exterior vinyl acetate paint and tested as described in Example IV.

Experiment [2] relates to Ps. aeruginosa. Put plainly: preservative for cutting oil emulsions. The following applies: for Minimum Inhibitory Concentration: listed as CH3, Cl, Cl; for MIC: Pseudomonas aeruginosa. How it is done:
Various aliquots of a 6% solution of the chemical in ethanol were added to cutting oil emulsions prepared by diluting Kutwell 30 cutting oil concentrate 1 to 30 with water. These samples were inoculated with a culture of Ps. aeruginosa and incubated at 28° on a rotary shaker. At weekly intervals the samples were examined for microorganisms and then reinoculated and incubated.

Experiment [3] has as its system P. aeruginosa. Put plainly: slimicide for pulp and paper mill water systems, P. aeruginosa. The following applies: for MIC: Pseudomonas aeruginosa, read-out: Minimum inhibitory concentration. On the procedure: (§1) Various quantities of a 6% solution of this compound in dimethylformamide were incorporated into 24 ml of a test substrate composed as follows:
(§2) 8.4 g Whatman No. 2 cellulose
(§3) 1.0 g Nutrient Broth, Difco
(§4) 10.0 ml Mersize Rm 70R (Monsanto)
(§5) The samples were inoculated with four different organisms and incubated at 28° C. At weekly intervals the samples were examined for the presence of microbial growth and reinoculated during a total incubation period of four weeks.
(§6) The test of Example V was used to determine the effectiveness of 4,5-dichloro-3-dicyanomethylene-2-methyl-4-isothiazoline as a slimicide.

The subject of experiment [4] is E. aerogenes. Put plainly: slimicide for pulp and paper mill water systems, E. aerogenes. The following applies: for MIC: Klebsiella aerogenes. On the procedure: as §1, §2, §3, §4, §5, §6
Experiment [5] deals with A. niger. Put plainly: slimicide for pulp and paper mill water systems, A. niger. The note with it: for MIC: Aspergillus niger, read-out: Minimum inhibitory concentration. How it is done:
as §1, §2, §3, §4, §5, §6

Experiment [6] concerns P. piscarium. Put plainly: slimicide for pulp and paper mill water systems, P. piscarium. On the procedure: as §1, §2, §3, §4, §5, §6
Where [7] appears, read: Conc. 0.25% in vinyl acetate paint, three weeks, 27°-28°, read-out: Zone (zone of inhibition).
Setting [8] is: Conc. 0.5% in vinyl acetate paint, three weeks, 27°-28°, read-out: Zone (zone of inhibition).
The mark [9] stands for this setting: Conc. 0.25% in vinyl acetate paint, three weeks, 27°-28°.
Setting [10] is: Conc. 0.5% in vinyl acetate paint, three weeks, 27°-28°.
Setting [11] is: read-out: Zone (zone of inhibition), Conc. 0.5% in vinyl acetate paint, three weeks, 27°-28°.
The mark [12] stands for this setting: 168 h, read-out: Minimum Inhibitory Concentration, cutting oil emulsion, incubation 1 week, 28°.
[13] abbreviates: 336 h, read-out: Minimum Inhibitory Concentration, cutting oil emulsion, incubation 2 weeks, 28°.
The mark [14] stands for this setting: read-out: Zone (zone of inhibition), Conc. 0.25% in vinyl acetate paint, three weeks, 27°-28°.
Where [15] appears, read: 168 h, cutting oil emulsion, incubation 1 week, 28°, read-out: Minimum Inhibitory Concentration.
Where [16] appears, read: 336 h, cutting oil emulsion, incubation 2 weeks, 28°, read-out: Minimum Inhibitory Concentration.
[17] abbreviates: 504 h, cutting oil emulsion, incubation 3 weeks, 28°, read-out: Minimum Inhibitory Concentration.
[18] abbreviates: 672 h, cutting oil emulsion, incubation 4 weeks, 28°, read-out: Minimum Inhibitory Concentration.

On to `CC[n+]1sc(Cl)c(Cl)c1Cl` [Et, Cl, Cl, Cl, O3SCF3], for which the zone of inhibition (in general, the extent of the growth-free halo in a diffusion test) at 0.25 % in experiment [1] (setting [7]) is 20 mm. Moreover, in experiment [1] (setting [8]), the zone of inhibition at 0.5 % worked out at 20 mm. The “Surface (growth on the surface of painted square)” value in experiment [1] (setting [9]) and in experiment [1] (setting [10]) was “None” each time.
Regarding `C[n+]1sc(Cl)c(Cl)c1Cl` [No. 1 (Table I), 2-Methyl-3,4,5-trichloroisothiazolium fluorosulfonate], the “Minimum Inhibitory Concentration” value was under 16 µg/mL in experiment [2] (cutting oil emulsion, incubation 1 week, 28°, O3SF); under 16 µg/mL in experiment [2] (cutting oil emulsion, incubation 2 weeks, 28°, O3SF); under 16 µg/mL in experiment [2] (cutting oil emulsion, incubation 3 weeks, 28°, O3SF); under 16 µg/mL in experiment [2] (cutting oil emulsion, incubation 4 weeks, 28°, O3SF). The zone of inhibition at 0.5 % in experiment [1] (setting [11]) was over 20 mm. In experiment [1] (Conc. 0.25% in vinyl acetate paint, three weeks, 27°-28°, O3SF), the “Zone (zone of inhibition)” value turned out to be 0 mm.
Regarding `Cn1sc(Cl)c(Cl)c1=S` [No. 1 (Table VIII), 4,5-Dichloro-2-methyl-4-isothiazolin-3-thione], the MIC in experiment [2] (setting [12]) was under 16 µg/mL; in experiment [2] (setting [13]) it was 62 µg/mL (≈ 310 µM); in experiment [2] (504 h, read-out: Minimum Inhibitory Concentration, cutting oil emulsion, incubation 3 weeks, 28°), 62 µg/mL (≈ 310 µM); in experiment [2] (672 h, read-out: Minimum Inhibitory Concentration, cutting oil emulsion, incubation 4 weeks, 28°) it was 62 µg/mL (≈ 310 µM); in experiment [3] it was 16 µg/mL (≈ 80 µM); in experiment [4] (read-out: Minimum inhibitory concentration, E. aerogenes, week 1, 28° C.), under 8 µg/mL. In addition, the MIC was under 8 µg/mL in experiment [4] (read-out: Minimum inhibitory concentration, E. aerogenes, week 2, 28° C.); 16 µg/mL (≈ 80 µM) in experiment [4] (read-out: Minimum inhibitory concentration, E. aerogenes, week 3, 28° C.); 16 µg/mL (≈ 80 µM) in experiment [4] (read-out: Minimum inhibitory concentration, E. aerogenes, week 4, 28° C.); under 8 µg/mL in experiment [5]; under 8 µg/mL in experiment [6] (read-out: Minimum inhibitory concentration, P. Piscarium, week 1, 28° C.); under 8 µg/mL in experiment [6] (read-out: Minimum inhibitory concentration, P. Piscarium, week 2, 28° C.). In addition, the MIC in experiment [6] (read-out: Minimum inhibitory concentration, P. Piscarium, week 3, 28° C.) is under 8 µg/mL; in experiment [6] (read-out: Minimum inhibitory concentration, P. Piscarium, week 4, 28° C.), 16 µg/mL (≈ 80 µM). In experiment [1] (setting [14]), the zone of inhibition at 0.25 % was found to be 20 mm. In addition, the zone of inhibition at 0.5 % in experiment [1] (setting [11]) stood at 20 mm. The “Surface (growth on the surface of painted square)” value in experiment [1] (setting [9]) and in experiment [1] (setting [10]) was “no growth” throughout. For the same molecule, the Minimum Inhibitory Concentration is 16 µg/mL in experiment [3] (P. aeruginosa, week 2, 28° C.); 16 µg/mL in experiment [3] (P. aeruginosa, week 3, 28° C.); 16 µg/mL in experiment [3] (P. aeruginosa, week 4, 28° C.); under 8 µg/mL in experiment [5] (A. niger, week 2, 28° C.); under 8 µg/mL in experiment [5] (A. niger, week 3, 28° C.); under 8 µg/mL in experiment [5] (A. niger, week 4, 28° C.).
Regarding `C[n+]1sc(Cl)c(Cl)c1Cl` [No. 3 (Table I), 2-Methyl-3,4,5-trichloroisothiazolium hexachloroantimonate], the “Minimum Inhibitory Concentration” value was determined as 2 µg/mL in experiment [2] (cutting oil emulsion, incubation 1 week, 28°, SbCl6); 2 µg/mL in experiment [2] (cutting oil emulsion, incubation 2 weeks, 28°, SbCl6); 2 µg/mL in experiment [2] (cutting oil emulsion, incubation 3 weeks, 28°, SbCl6); 64 µg/mL in experiment [2] (cutting oil emulsion, incubation 4 weeks, 28°, SbCl6). For the same molecule, the “Zone (zone of inhibition)” value in experiment [1] (Conc. 0.25% in vinyl acetate paint, three weeks, 27°-28°, SbCl6) came to 20 mm; in experiment [1] (Conc. 0.5% in vinyl acetate paint, three weeks, 27°-28°, SbCl6), 20 mm.
As for `C[n+]1scc(Cl)c1Cl` [No. 22 (Table I), 3,4-Dichloro-2-methylisothiazolium fluorosulfonate], the MIC in experiment [2] (setting [12]) and in experiment [2] (setting [13]) was 32 µg/mL in each case. For the same molecule, the “Minimum Inhibitory Concentration” value in experiment [2] (cutting oil emulsion, incubation 3 weeks, 28°, H, O3SF) amounted to 125 µg/mL; in experiment [2] (cutting oil emulsion, incubation 4 weeks, 28°, H, O3SF), 250 µg/mL. The zone of inhibition at 0.25 % in experiment [1] (setting [14]) was determined as 0 mm. The zone of inhibition at 0.5 % in experiment [1] (setting [11]) turned out to be 0 mm.
As for `C[n+]1sc(Cl)c(C#N)c1Cl` [No. 26 (Table I), 4-Cyano-3,5-dichloro-2-methylisothiazolium fluorosulfonate], the MIC in experiment [2] (setting [15]) is under 16 µg/mL; in experiment [2] (setting [16]), 125 µg/mL; in experiment [2] (setting [17]) it was 250 µg/mL; in experiment [2] (setting [18]) it was 250 µg/mL. Further, the zone of inhibition at 0.25 % in experiment [1] (setting [7]) worked out at 0 mm. For the same molecule, the zone of inhibition at 0.5 % in experiment [1] (setting [8]) was 0 mm.
For `CN1SC(Cl)=C(Cl)C1=C(C#N)C#N` [drawing 12 CH3, Cl, Cl, 4,5-dichloro-3-dicyanomethylene-2-methyl-4-isothiazoline], the MIC in experiment [2] (setting [15]) amounted to 125 µg/mL (≈ 539 µM); in experiment [2] (setting [16]) it was 125 µg/mL (≈ 539 µM); in experiment [2] (setting [17]) it was 250 µg/mL (≈ 1080 µM); in experiment [2] (setting [18]), 250 µg/mL (≈ 1080 µM); in experiment [3] (P. aeruginosa, week 1, 28° C.), 250 µg/mL (≈ 1080 µM); in experiment [4] (E. aerogenes, week 1, 28° C., read-out: Minimum inhibitory concentration), 250 µg/mL (≈ 1080 µM). The MIC worked out at 250 µg/mL (≈ 1080 µM) in experiment [5] (A. niger, week 1, 28° C.); 500 µg/mL (≈ 2150 µM) in experiment [5] (A. niger, week 2, 28° C.); 500 µg/mL (≈ 2150 µM) in experiment [5] (A. niger, week 3, 28° C.); 500 µg/mL (≈ 2150 µM) in experiment [5] (A. niger, week 4, 28° C.); 250 µg/mL (≈ 1080 µM) in experiment [6] (P. Piscarium, week 1, 28° C., read-out: Minimum inhibitory concentration); 250 µg/mL (≈ 1080 µM) in experiment [6] (P. Piscarium, week 2, 28° C., read-out: Minimum inhibitory concentration). Also, the MIC came to 250 µg/mL (≈ 1080 µM) in experiment [6] (P. Piscarium, week 3, 28° C., read-out: Minimum inhibitory concentration) and 500 µg/mL (≈ 2150 µM) in experiment [6] (P. Piscarium, week 4, 28° C., read-out: Minimum inhibitory concentration). Besides, the Minimum Inhibitory Concentration was determined as 250 µg/mL in experiment [3] (P. aeruginosa, week 2, 28° C.); 250 µg/mL in experiment [3] (P. aeruginosa, week 3, 28° C.); 250 µg/mL in experiment [3] (P. aeruginosa, week 4, 28° C.); 250 µg/mL in experiment [4] (E. aerogenes, week 2, 28° C.); 250 µg/mL in experiment [4] (E. aerogenes, week 3, 28° C.); 250 µg/mL in experiment [4] (E. aerogenes, week 4, 28° C.).

These data come from patent US4281136A, “2-Alkyl-3-haloisothiazolium salts and their derivatives” (Givaudan Corporation, priority 1978, dated 1981).
